What all share (type): biochemical
For one assay, the target named is T1, human JAK1 (Homo sapiens, UniProt P23458).
T1 construct: catalytic domain, amino acids 866-1154; catalog number PV4774; purchased Invitrogen PV4774
The experiment in a line: JAK1 inhibition assay (polyGT substrate / Ulight-JAK1 peptide). Particulars: recombinant human JAK1 catalytic domain; polyGT or Ulight-JAK1 peptide assay. Summed up: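 Two formats. PolyGT radiometric: 45 min at 30 °C, stopped with phosphoric acid, counted as cpm. Ulight-JAK1 peptide: 60 min at room temperature, stopped with Eu-anti-phosphotyrosine/EDTA, read as RFU. Percent inhibition normalised to vehicle and 10 μM staurosporine.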

The target of another assay is T2, human JAK3 (Homo sapiens, UniProt P52333).
T2 construct: catalytic domain (amino acids 781-1124; catalog number PV3855); purchased Invitrogen PV3855
In words: JAK3 inhibition assay. Particulars: recombinant human JAK3 catalytic domain; polyGT substrate. Put shortly: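 Radiometric kinase assay: 0.5 ng JAK3 with 2.5 μg polyGT in Tris pH 7.5/MgCl2 buffer, 1 μM ATP plus 0.25 μCi 33P-γ-ATP, 1% DMSO, 45 min at 30 °C, stopped with phosphoric acid.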

The next assay concerns the target T3, human TYK2 (Homo sapiens, UniProt P29597).
T3 construct: catalytic domain (amino acids 871-1187; catalog number 08-147); purchased Carna Biosciences 08-147
T3 sequence (P29597 871-1187): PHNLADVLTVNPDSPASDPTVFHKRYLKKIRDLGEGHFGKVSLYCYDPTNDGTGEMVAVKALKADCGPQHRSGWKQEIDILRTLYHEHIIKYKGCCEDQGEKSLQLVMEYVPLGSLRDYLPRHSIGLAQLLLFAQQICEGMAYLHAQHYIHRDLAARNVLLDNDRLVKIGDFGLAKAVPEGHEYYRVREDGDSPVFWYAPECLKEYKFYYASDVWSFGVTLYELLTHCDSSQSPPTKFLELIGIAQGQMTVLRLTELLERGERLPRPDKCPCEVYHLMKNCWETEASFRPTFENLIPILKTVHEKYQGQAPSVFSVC
The experiment in a line: TYK2 inhibition assay. The following applies: recombinant human TYK2 catalytic domain, polyGT substrate. Put shortly: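 Radiometric kinase reaction run 90 min at 30 °C, stopped with phosphoric acid, washed and scintillation-counted.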

For a further assay, the target named is T4, human JAK2 (Homo sapiens, UniProt O60674).
T4 construct: catalytic domain (amino acids 808-1132; catalog number PV4210); GST; purchased Invitrogen PV4210
The experiment in a line: JAK2 inhibition assay (polyGT substrate / Ulight-JAK1 peptide). Particulars: recombinant human JAK2 catalytic domain; polyGT or Ulight-JAK1 peptide assay. Summed up:
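Radiometric: 0.025 mU JAK2 with 2.5 μg polyGT, 1 μM ATP plus ^33P-ATP in MOPS pH 7.5 buffer, 1% DMSO, 90 min at 30° C.; filter counting. Alternative TR-FRET format with Ulight-JAK1 peptide, 60 min at room temperature, Eu-anti-phosphotyrosine detection.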

Bounds are passed on as bounds.

Data on 21 molecules can be found in US20130217664A1, “NOVEL COMPOUNDS USEFUL FOR THE TREATMENT OF DEGENERATIVE AND INFLAMMATORY DISEASES” (priority 2012, published 2013).

T1 sequence (P23458 866-1154): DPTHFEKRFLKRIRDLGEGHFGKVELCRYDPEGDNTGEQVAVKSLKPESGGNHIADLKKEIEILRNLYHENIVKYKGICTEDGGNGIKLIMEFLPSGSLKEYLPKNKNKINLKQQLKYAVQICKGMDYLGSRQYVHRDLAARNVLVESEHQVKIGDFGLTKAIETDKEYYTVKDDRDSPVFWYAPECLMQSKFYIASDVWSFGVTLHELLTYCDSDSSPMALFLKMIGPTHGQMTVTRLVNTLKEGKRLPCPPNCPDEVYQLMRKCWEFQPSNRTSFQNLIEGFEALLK
T4 sequence (O60674 808-1132): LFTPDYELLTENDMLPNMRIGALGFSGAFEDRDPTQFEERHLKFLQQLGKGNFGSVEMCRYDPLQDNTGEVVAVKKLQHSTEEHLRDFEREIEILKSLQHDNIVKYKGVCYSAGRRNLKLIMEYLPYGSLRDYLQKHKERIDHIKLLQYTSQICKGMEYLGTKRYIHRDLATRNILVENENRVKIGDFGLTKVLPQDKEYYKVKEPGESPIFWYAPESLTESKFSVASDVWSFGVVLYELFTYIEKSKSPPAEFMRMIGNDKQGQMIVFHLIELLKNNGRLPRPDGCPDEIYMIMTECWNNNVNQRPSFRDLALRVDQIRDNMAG
T2 sequence (P52333 781-1124): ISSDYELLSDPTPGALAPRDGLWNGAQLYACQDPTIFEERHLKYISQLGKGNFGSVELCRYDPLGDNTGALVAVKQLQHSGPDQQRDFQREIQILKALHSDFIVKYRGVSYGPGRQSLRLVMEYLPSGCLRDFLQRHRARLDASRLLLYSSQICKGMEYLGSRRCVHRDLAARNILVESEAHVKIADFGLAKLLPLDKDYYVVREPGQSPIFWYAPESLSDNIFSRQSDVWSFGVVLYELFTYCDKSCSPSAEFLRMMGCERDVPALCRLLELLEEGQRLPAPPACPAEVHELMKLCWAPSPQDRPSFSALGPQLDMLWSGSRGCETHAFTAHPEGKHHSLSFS

Consider `CCc1cc(N2CCCC2=O)ncc1N(C)c1cc2c(cn1)ncn2C` [Compound 318, 1-{4-Ethyl-5-[methyl-(1-methyl-1H-imidazo[4,5-c]pyridin-6-yl)-amino]-pyridin-2-yl}-pyrrolidin-2-one], for which the IC50 (in general, the concentration that gives 50% inhibition) on human JAK1 was 101 to 500 nM; at human JAK3 it was more than 1000 nM; on human TYK2, more than 1000 nM; on human JAK2, 501 to 1000 nM.
In the case of `CN(c1ccc(/C=C/C#N)cc1)c1cc2c(cn1)ncn2C` [Compound 345, (E)-3-{4-[Methyl-(1-methyl-1H-imidazo[4,5-c]pyridin-6-yl)-amino]-phenyl}-acrylonitrile], the IC50 was 101 to 500 nM on human JAK1, more than 1000 nM at human JAK3, more than 1000 nM on human TYK2 and 501 to 1000 nM at human JAK2.
`CCc1cc(N2CC(C(=O)OC)C2)ncc1N(C)c1cc2c(cn1)ncn2C` [Compound 399, 1-{4-Ethyl-5-[methyl-(1-methyl-1H-imidazo[4,5-c]pyridin-6-yl)-amino]-pyridin-2-yl}-azetidine-3-carboxylic acid methyl ester]: the IC50 is 0.01 to 100 nM on human JAK1, more than 1000 nM on human JAK3, more than 1000 nM on human TYK2 and 101 to 500 nM on human JAK2.
Consider `CCc1cc(N2CC(NS(C)(=O)=O)C2)ncc1N(C)c1cc2c(cn1)ncn2C` [Compound 443, N-(1-{4-Ethyl-5-[methyl-(1-methyl-1H-imidazo[4,5-c]pyridin-6-yl)-amino]-pyridin-2-yl}-azetidin-3-yl)-methAnesulfonamide], for which the IC50 at human JAK1 lay in the range of 0.01 to 100 nM; at human JAK3 it was 101 to 500 nM; on human TYK2, 0.01 to 100 nM; at human JAK2, 0.01 to 100 nM.
On to `CCc1cc(CN(C)S(C)(=O)=O)ncc1N(C)c1cc2c(cn1)ncn2C` [Compound 317, N-{4-Ethyl-5-[methyl-(1-methyl-1H-imidazo[4,5-c]pyridin-6-yl)-amino]-pyridin-2-ylmethyl}-N-methyl-methane sulfonamide], for which the IC50 lay within 0.01 to 100 nM at human JAK1, 0.01 to 100 nM on human JAK3, 0.01 to 100 nM on human TYK2 and 101 to 500 nM at human JAK2.
In the case of `CCn1nc(C)cc1N(C)c1cc2c(cn1)ncn2C` [Compound 305, (2-Ethyl-5-methyl-2H-pyrazol-3-yl)-methyl-(1-methyl-1H-imidazo[4,5-c]pyridin-6-yl)-amine], the half-inhibitory concentration (IC50) at human JAK1, at human JAK3, at human TYK2 and on human JAK2 was more than 1000 nM in each case.
As to `CN(c1cc2c(cn1)ncn2C)c1ccccc1F` [Compound 67, N-(2-fluorophenyl)-N,1-dimethyl-1H-imidazo[4,5-c]pyridin-6-amine], the IC50 at human JAK1 was 101 to 500 nM; at human JAK3, more than 1000 nM; at human TYK2 it was 101 to 500 nM; on human JAK2, more than 1000 nM.
For the molecule `Cc1cc(OCc2ccc(C#N)nc2)ccc1N(C)c1cc2c(cn1)ncn2C` [Compound 89, 5-((3-methyl-4-(methyl(1-methyl-1H-imidazo[4,5-c]pyridin-6-yl)amino)phenoxy)methyl) picolinonitrile], the IC50 is 101 to 500 nM on human JAK1, more than 1000 nM on human JAK3, more than 1000 nM at human TYK2 and more than 1000 nM at human JAK2.
`CCc1cc(N2CC[C@H](C)C2)ncc1N(C)c1cc2c(cn1)ncn2C` [Compound 417, [4-Ethyl-6-((S)-3-methyl-pyrrolidin-1-yl)-pyridin-3-yl]-methyl-(1-methyl-1H-imidazo[4,5-c]pyridin-6-yl)-amine]: the IC50 lay in the range of 0.01 to 100 nM on human JAK1, 101 to 500 nM on human JAK3, 0.01 to 100 nM on human TYK2 and 0.01 to 100 nM on human JAK2.
As for `CCNC(=O)C1CN(c2cc(CC)c(N(C)c3cc4c(cn3)ncn4C)cn2)C1` [Compound 412, 1-{4-Ethyl-5-[methyl-(1-methyl-1H-imidazo[4,5-c]pyridin-6-yl)-amino]-pyridin-2-yl}-azetidine-3-carboxylic acid ethylamide], the IC50 on human JAK1 was 501 to 1000 nM; at human JAK3, more than 1000 nM; at human TYK2, more than 1000 nM; on human JAK2, 501 to 1000 nM.
Regarding `CCc1nc(C2CN(C(=O)OC(C)(C)C)C2)cnc1N(C)c1cc2c(cn1)ncn2C` [Compound 457, 3-{6-Ethyl-5-[methyl-(1-methyl-1H-imidazo[4,5-c]pyridin-6-yl)-amino]-pyrazin-2-yl}-azetidine-1-carboxylic acid tert-butyl ester], the IC50 on human JAK1, at human JAK3, on human TYK2 and on human JAK2 was more than 1000 nM each time.
As to `CCc1cc(OCC(N)=O)ccc1N(C)c1cc2c(cn1)ncn2C` [Compound 299], the IC50 is 0.01 to 100 nM on human JAK1, more than 1000 nM on human JAK3, 101 to 500 nM at human TYK2 and 101 to 500 nM at human JAK2.
As to `CCc1cc(C2CN(C(=O)CC#N)C2)ncc1N(C)c1cc2c(cn1)ncn2C` [Compound 335, 3-(3-{4-Ethyl-5-[methyl-(1-methyl-1H-imidazo[4,5-c]pyridin-6-yl)-amino]-pyridin-2-yl}-azetidin-1-yl)-3-oxo-propionitrile], the IC50 on human JAK1 is 0.01 to 100 nM; at human JAK3, more than 1000 nM; at human TYK2, more than 1000 nM; at human JAK2, 501 to 1000 nM.
As to `Cc1ccc(N(C)c2cc3c(cn2)ncn3C)c(OC(F)F)c1` [Compound 427, (2-Difluoromethoxy-4-methyl-phenyl)-methyl-(1-methyl-1H-imidazo[4,5-c]pyridin-6-yl)-amine], the IC50 at human JAK1 is 0.01 to 100 nM; at human JAK3, more than 1000 nM; on human TYK2, more than 1000 nM; on human JAK2 it was 0.01 to 100 nM.
Consider `CCc1cc(C(C#N)N2CC(NS(C)(=O)=O)C2)ccc1N(C)c1cc2c(cn1)ncn2C` (stereo not drawn) [Compound 455, N-[1-(Cyano-{3-ethyl-4-[methyl-(1-methyl-1H-imidazo[4,5-c]pyridin-6-yl)-amino]-phenyl}-methyl)-azetidin-3-yl]-methanesulfonamide], for which the IC50 at human JAK1, on human JAK3, at human TYK2 and on human JAK2 was 0.01 to 100 nM throughout.
As to `CN(c1ccc(OC(F)(F)F)cc1)c1cc2c(cn1)ncn2C` [Compound 1, N,1-dimethyl-N-(4-(trifluoromethoxy)phenyl)-1H-imidazo[4,5-c]pyridin-6-amine], the IC50 was 101 to 500 nM at human JAK1, more than 1000 nM on human JAK3, more than 1000 nM at human TYK2 and more than 1000 nM at human JAK2.
Turning to `CN(c1cc2c(cn1)ncn2C)c1c(F)cc(C2CN(C(=O)OC(C)(C)C)C2)cc1F` [Compound 408, 3-{3,5-Difluoro-4-[methyl-(1-methyl-1H-imidazo[4,5-c]pyridin-6-yl)-amino]-phenyl)-azetidine-1-carboxylic acid tert-butyl ester], the IC50 at human JAK1, on human JAK3, at human TYK2 and at human JAK2 was more than 1000 nM each time.
Take `CN(c1cc2c(cn1)ncn2C)c1ccc(C2CN(S(=O)(=O)N3CCOCC3)C2)cc1OC(F)F` [Compound 371, {2-Difluoromethoxy-4-[1-(morpholine-4-sulfonyl)-azetidin-3-yl]-phenyl}-methyl-(1-methyl-1H-imidazo[4,5-c]pyridin-6-yl)-amine]: the IC50 at human JAK1 is 0.01 to 100 nM; at human JAK3, more than 1000 nM; on human TYK2 it was more than 1000 nM; on human JAK2 it was 101 to 500 nM.
Turning to `CCc1cc(N2CCC(C#N)C2)ncc1N(C)c1cc2c(cn1)ncn2C` (stereo not drawn) [Compound 418, 1-{4-Ethyl-5-[methyl-(1-methyl-1H-imidazo[4,5-c]pyridin-6-yl)-amino]-pyridin-2-yl}-pyrrolidine-3-carbonitrile], the IC50 on human JAK1, at human JAK3, on human TYK2 and at human JAK2 was 0.01 to 100 nM each time.
Regarding `Cc1cc(OCc2cccnc2)ccc1N(C)c1cc2c(cn1)ncn2C` [Compound 55, N,1-dimethyl-N-(2-methyl-4-(pyridin-3-ylmethoxy)phenyl)-1H-imidazo[4,5-c]pyridin-6-amine], the IC50 at human JAK1 was 101 to 500 nM; at human JAK3, more than 1000 nM; on human TYK2, more than 1000 nM; at human JAK2, more than 1000 nM.
For the molecule `CCc1ccccc1N(CCN1CCCC1)c1cc2c(cn1)ncn2C` [Compound 459, N-(2-ethylphenyl)-1-methyl-N-(2-(pyrrolidin-1-yl)ethyl)-1H-imidazo[4,5-c]pyridin-6-amine], the IC50 on human JAK1 is 101 to 500 nM; on human JAK3 it was more than 1000 nM; on human TYK2 it was more than 1000 nM; on human JAK2, more than 1000 nM.
